Results published in patent publication US20250179103A1, “6-OXODECAHYDROPYRROLO[1,2-A][1,5]DIAZOCINE AND 6-OXODECAHYDRO-4H-PYRROLO[2,1-D][1,5]THIAZOCINE DERIVATIVES AS STAT3 AND STAT6 MODULATORS FOR THE TREATMENT OF CANCER AND INFLAMMATORY CONDITIONS” (Recludix Pharma, Inc., priority 2022, published 2025).

Legend:
[1] = molecular target: T1, Recombinant STAT3 protein (STAT3(G127-I722)) (Homo sapiens, UniProt P40763); test: STAT3 Fluorescence Polarization (FP) Assay; format: binding; conditions: STAT3(G127-I722) 25 nM, probe 5-FAM-GpYLPQTV-NH2 2 nM, 45-minute incubation
T1 construct: Recombinant STAT3 protein (STAT3(G127-I722))
T1 sequence (P40763 127-722): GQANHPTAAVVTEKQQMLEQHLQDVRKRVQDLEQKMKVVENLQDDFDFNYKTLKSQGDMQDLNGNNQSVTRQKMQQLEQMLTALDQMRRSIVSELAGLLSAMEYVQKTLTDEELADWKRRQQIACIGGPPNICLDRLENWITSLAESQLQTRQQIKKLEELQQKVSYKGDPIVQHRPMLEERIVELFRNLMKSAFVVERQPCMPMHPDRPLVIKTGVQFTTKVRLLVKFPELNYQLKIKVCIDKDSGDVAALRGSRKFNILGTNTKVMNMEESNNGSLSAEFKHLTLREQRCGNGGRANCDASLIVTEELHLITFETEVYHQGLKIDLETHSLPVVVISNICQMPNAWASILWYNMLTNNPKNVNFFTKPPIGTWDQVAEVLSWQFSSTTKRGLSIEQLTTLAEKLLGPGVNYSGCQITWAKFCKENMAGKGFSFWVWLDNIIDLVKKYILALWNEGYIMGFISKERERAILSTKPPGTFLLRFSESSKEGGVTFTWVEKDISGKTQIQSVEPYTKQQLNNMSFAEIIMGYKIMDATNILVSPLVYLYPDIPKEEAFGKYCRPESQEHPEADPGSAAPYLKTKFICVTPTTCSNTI
In short: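 Fluorescence polarization after a 45-min room-temperature incubation measured compound displacement of a 2 nM fluorescein-labelled phosphotyrosine peptide (5-FAM-GpYLPQTV-NH2) from 25 nM recombinant STAT3(G127-I722). Buffer was 10 mM HEPES pH 7.4 with 1% DMSO final. IC50s were fitted by nonlinear regression of mP against log concentration.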

[2] = molecular target: T2, Recombinant STAT6 protein (STAT6(W123-T658)) (Homo sapiens, UniProt P42226); test: STAT6 Fluorescence Polarization (FP) Assay; format: binding; conditions: STAT6(W123-T658) 250 nM, probe 5-FAM-ApYKPFQDLI-NH2 2 nM, 45-minute incubation
T2 construct: Recombinant STAT6 protein (STAT6(W123-T658))
T2 sequence (P42226 123-658): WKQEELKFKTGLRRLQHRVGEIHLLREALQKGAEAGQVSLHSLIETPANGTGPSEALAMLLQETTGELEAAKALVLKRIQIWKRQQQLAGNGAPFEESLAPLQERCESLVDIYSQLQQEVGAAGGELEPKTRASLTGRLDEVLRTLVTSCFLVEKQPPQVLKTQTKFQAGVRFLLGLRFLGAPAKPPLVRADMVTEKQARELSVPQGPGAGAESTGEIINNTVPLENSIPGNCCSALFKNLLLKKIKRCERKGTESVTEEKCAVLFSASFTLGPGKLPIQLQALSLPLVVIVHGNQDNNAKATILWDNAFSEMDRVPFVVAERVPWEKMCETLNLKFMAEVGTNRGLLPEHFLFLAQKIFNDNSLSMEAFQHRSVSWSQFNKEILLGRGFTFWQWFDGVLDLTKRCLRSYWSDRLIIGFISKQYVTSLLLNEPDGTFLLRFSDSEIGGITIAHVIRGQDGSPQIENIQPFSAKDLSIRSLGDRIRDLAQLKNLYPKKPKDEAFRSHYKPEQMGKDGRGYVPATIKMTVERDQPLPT
In short: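 Displacement of a fluorescent phosphotyrosine peptide (5-FAM-ApYKPFQDLI-NH2, 2 nM) from STAT6(W123-T658) (250 nM), 1% DMSO, pH 7.4 HEPES buffer. After 45 min at room temperature, polarization (mP) was plotted versus log compound concentration and fitted by nonlinear regression to give IC50.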

SMILES	IC50 [1] [nM]	IC50 [2] [nM]
CC(=O)N1CC[C@H]2CC[C@@H](C(=O)N(C)c3ccc(C(F)F)cc3)N2C(=O)[C@@H](NC(=O)c2cc3cc(C(F)(F)P(=O)(O)O)ccc3s2)C1 [Compound 202, ((2-(((5S,8S,10aR)-3-acetyl-8-((4-(difluoromethyl)phenyl)(methyl)carbamoyl)-6-oxodecahydropyrrolo[1,2-a][1,5]diazocin-5-yl)carbamoyl)benzo[b]thiophen-5-yl)difluoromethyl)phosphonic acid]	1000 to 10000	300 to 3000
Cc1ccc2onc(C(=O)N3CC[C@H]4CC[C@@H](C(=O)N5CCOC(Cc6ccccc6)C5)N4C(=O)[C@@H](NC(=O)c4ccc5ccc(C(F)P(=O)(O)O)cc5c4)C3)c2c1 (stereo partly drawn) [Compound 373, ((7-(((5S,8S,10aR)-8-(2-benzylmorpholine-4-carbonyl)-3-(5-methylbenzo[d]isoxazole-3-carbonyl)-6-oxodecahydropyrrolo [1,2-a][1,5]diazocin-5-yl)carbamoyl)naphthalen-2-yl)fluoromethyl) phosphonic acid]	> 10000	≤ 300
Cc1ccc2onc(C(=O)N3CC[C@H]4CC[C@@H](C(=O)N5CCOC[C@H]5c5ccccc5)N4C(=O)[C@@H](NC(=O)c4ccc5ccc(C(F)P(=O)(O)O)cc5c4)C3)c2c1 (stereo partly drawn) [Compound 371, (fluoro(7-(((5S,8S,10aR)-3-(5-methylbenzo[d]isoxazole-3-carbonyl)-6-oxo-8-((R)-3-phenylmorpholine-4-carbonyl)decahydro-pyrrolo[1,2-a][1,5]diazocin-5-yl)carbamoyl)naphthalen-2-yl)methyl)phosphonic acid]	> 10000	≤ 300

Further lines, results first:

IC50 [1] [nM]	IC50 [2] [nM]	SMILES
100 to 1000	≤ 300	CC(=O)N1CC[C@H]2CC[C@@H](C(=O)Nc3ccc4nnccc4c3)N2C(=O)[C@@H](NC(=O)c2cc3cc(C(F)(F)P(=O)(O)O)ccc3s2)C1 [Compound 174, ((2-(((5S,8S,10aR)-3-acetyl-8-(cinnolin-6-ylcarbamoyl)-6-oxodecahydropyrrolo[1,2-a][1,5]diazocin-5-yl)carbamoyl)benzo[b]thiophen-5-yl)difluoromethyl)phosphonic acid]
1000 to 10000	300 to 3000	O=C(N[C@H]1CN(C(=O)Cc2ccccc2)CC[C@H]2CC[C@@H](C(=O)Nc3ccccc3-c3ccccc3)N2C1=O)c1cc2cc(C(F)(F)P(=O)(O)O)ccc2[nH]1 [Compound 265, ((2-(((5S,8S,10aR)-8-([1,1′-biphenyl]-2-ylcarbamoyl)-6-oxo-3-(2-phenylacetyl)decahydropyrrolo[1,2-a][1,5]diazocin-5-yl)carbamoyl)-1H-indol-5-yl)difluoromethyl)phosphonic acid]
1000 to 10000	300 to 3000	CN(C(=O)[C@@H]1CC[C@@H]2CCN(CC(F)F)C[C@H](NC(=O)c3cc4cc(C(F)(F)P(=O)(O)O)ccc4[nH]3)C(=O)N21)c1ccccc1 [Compound 218, ((2-(((5S,8S,10aR)-3-(2,2-difluoroethyl)-8-(methyl(phenyl)carbamoyl)-6-oxodecahydropyrrolo[1,2-a][1,5]diazocin-5-yl)carbamoyl)-1H-indol-5-yl)difluoromethyl)phosphonic acid]
≤ 100	300 to 3000	CC(C)(CC(=O)N1CC[C@H]2CC[C@@H](C(=O)N3CC(c4cccnc4)C3)N2C(=O)[C@@H](NC(=O)c2cc3cc(C(F)(F)P(=O)(O)O)ccc3s2)C1)C1CCCCC1 [Compound 269, ((2-(((5S,8S,10aR)-3-(3-cyclohexyl-3-methylbutanoyl)-6-oxo-8-(3-(pyridin-3-yl)azetidine-1-carbonyl)decahydropyrrolo[1,2-a][1,5]diazocin-5-yl)carbamoyl)benzo[b]thiophen-5-yl)difluoromethyl)phosphonic acid]
